Assay results taken from patent publication US11000509B2, “Methods and compositions for daily ophthalmic administration of phentolamine to improve visual performance” (Ocuphire Pharma, Inc., priority 2013, dated 2021).
Counter-ions that a name gives are not always drawn. Marks after values point to notes of the source that are not given here.

Key:
[1] = system: eyes of patients suffering from severe night vision difficulty; experiment: Example 1 clinical study: reduction in pupil diameter; type: in vivo, humans; conditions: from percentage of eyes with at least 10% reduction in pupil diameter after the last dose, second period, 1% (w/v) (FIG. 4B)
Description: Sixty patients with normal day vision (i.e., 20/40 or better) but which suffer from severe night vision difficulty were enrolled in the study. During the first period of the study, patients were randomized into three groups. The groups received either placebo, 0.5% (w/v) phentolamine mesylate, or 1.0% (w/v) phentolamine mesylate once daily for 15 days. The patients were observed on days 1, 4, 8, and 15 prior to administering the ophthalmic solution of phentolamine mesylate and then observed again two hours after the ophthalmic solution of phentolamine mesylate was administered. During the second period of the study, all sixty patients were instructed to administer an ophthalmic solution of phentolamine mesylate (1% (w/v)) as needed, but no more than once daily to each eye. The ophthalmic solution of phentolamine mesylate contained: 1% (w/v) phentolamine mesylate, 4% (w/v) mannitol, 3 mM sodium acetate, and water. The placebo was a solution containing 4% (w/v) mannitol, 3 mM sodium acetate, and water.

[2] = system: eyes of patients with pupil size in dim light of greater than 7 mm; experiment: Example 2 clinical study: monocular low contrast visual acuity under photopic conditions (5% tint chart); type: in vivo, humans; conditions: for mean low contrast acuity compared to baseline: paired t-test
Description: Sixteen patients were randomized into four groups (of four subjects each). Each group was treated on three successive study visits separated by at least 4 days with one drop of ophthalmic oxymetazoline solution (Visine LR®) in each eye followed by one drop test article in each eye. The test article was a 0.2% (w/v) phentolamine mesylate solution, 0.4% (w/v) phentolamine mesylate solution, 0.8% (w/v) phentolamine mesylate solution, or placebo. Test articles contained the designed amount of phentolamine mesylate in a solution of Tears Naturale II® (from Alcon Labs). Placebo was just Tears Naturale II® (from Alcon Labs). Tears Naturale II® (from Alcon Labs) contains Dextran 70 (0.1% by weight), Hydroxypropyl Methylcellulose 2910 (0.3% by weight), Polyquarternium-1 (0.001% by weight), potassium chloride, water (purified), sodium borate, sodium chloride, and hydrochloric acid and/or sodium hydroxide as necessary to adjust the pH. The patients' eye redness and pupil diameters were recorded at baseline (i.e., prior to treatment administration), and at 30 minutes, 1 hour, 2 hours, 4 hours, and 8 hours after administration of test articles. The incidence of any treatment-emergent adverse events was also recorded. Total study duration was approximately nine hours.
Eye redness of patients' eyes was evaluated by the research assistant and recorded as a single integer of value 0 (no redness) to 4 (extreme redness) at baseline and each time point after treatment. Pupil diameters were measured to within 0.1 mm for each eye at baseline and each subsequent time point using a NeurOptics™ pupilometer. Monocular high contrast visual acuity was measured for each eye under photopic conditions at baseline and each subsequent time point in a darkened room using a Precision Vision™ High Contrast (100% tint) Visual Acuity Chart (Catalog #2102) backlit by the Precision Vision Illumination Box. Monocular low contrast visual acuity was measured for each eye under photopic conditions at baseline and each subsequent time point in a darkened room using a Precision Vision™ Low Contrast (5% tint) Visual Acuity Chart (Catalog #2186) backlit by the Precision Vision Illumination Box. Effect of treatment on glare was assessed using an experimental test method consisting of a panel with a high wattage central light emitting diode (LED) and a set of 7 lower wattage red LEDs radiating horizontally and vertically from the central light.
Comparisons of changes in mean values within treatment groups were tested for significance using two-tailed paired two sample t-tests with a threshold for significance set at p<0.01 (Bonferroni Correction for multiple paired t-tests). Differences between treatment groups with respect to mean values for pupil size over the course of the study were tested for significance using repeated measure ANOVA (which discards data from subjects lacking any data points). Differences in mean eye redness between treatment groups were evaluated using Kruskal-Wallis nonparametric testing. Differences in means between treatment groups at individual time points were tested for significance using one-way ANOVA.

[3] = 0.2% (w/v) solution, 30 min after treatment
[4] = 0.2% (w/v) solution, 1 hour after treatment
[5] = 0.2% (w/v) solution, 2 hours after treatment
[6] = 0.2% (w/v) solution, 4 hours after treatment
[7] = 0.2% (w/v) solution, 8 hours after treatment
[8] = 0.2% (w/v) solution, Baseline, prior to treatment
[9] = 0.4% (w/v) solution, 30 min after treatment
[10] = 0.4% (w/v) solution, 1 hour after treatment
[11] = 0.4% (w/v) solution, 2 hours after treatment
[12] = 0.4% (w/v) solution, 4 hours after treatment
[13] = 0.4% (w/v) solution, 8 hours after treatment
[14] = 0.4% (w/v) solution, Baseline, prior to treatment
[15] = 0.8% (w/v) solution, 30 min after treatment
[16] = 0.8% (w/v) solution, 1 hour after treatment
[17] = 0.8% (w/v) solution, 2 hours after treatment
[18] = 0.8% (w/v) solution, 4 hours after treatment
[19] = 0.8% (w/v) solution, 8 hours after treatment
[20] = 0.8% (w/v) solution, Baseline, prior to treatment

`Cc1ccc(N(CC2=NCCN2)c2cccc(O)c2)cc1` [Phentolamine Mesylate, phentolamine mesylate] was tested, and the pharmacokinetic half-life [1] was “approximately two”, the “Maximum low contrast visual acuity” value [2, 3] was −0.10 LogMar and the “Mean low contrast visual acuity” value [2, 3] was −0.35 LogMar. For the same compound, the “Minimum low contrast visual acuity” value [2, 3] was −0.78 LogMar, the “Maximum low contrast visual acuity” value [2, 4] was −0.08 LogMar and the “Mean low contrast visual acuity” value [2, 4] was −0.32 LogMar. The “Minimum low contrast visual acuity” value [2, 4] was −0.80 LogMar, the “Maximum low contrast visual acuity” value [2, 5] was −0.11 LogMar and the “Mean low contrast visual acuity” value [2, 5] was −0.32 LogMar. For the same compound, the “Minimum low contrast visual acuity” value [2, 5] was −0.74 LogMar, the “Maximum low contrast visual acuity” value [2, 6] was 0.00 LogMar and the “Mean low contrast visual acuity” value [2, 6] was −0.30 LogMar. For the same compound, the “Minimum low contrast visual acuity” value [2, 6] was −0.76 LogMar, the “Maximum low contrast visual acuity” value [2, 7] was −0.08 LogMar and the “Mean low contrast visual acuity” value [2, 7] was −0.30^e LogMar. The “Minimum low contrast visual acuity” value [2, 7] was −0.72 LogMar, the “Maximum low contrast visual acuity” value [2, 8] was −0.06 LogMar and the “Mean low contrast visual acuity” value [2, 8] was −0.34^d LogMar. The “Minimum low contrast visual acuity” value [2, 8] was −0.80 LogMar, the “Maximum low contrast visual acuity” value [2, 9] was 0.00 LogMar and the “Mean low contrast visual acuity” value [2, 9] was −0.24 LogMar. The “Minimum low contrast visual acuity” value [2, 9] was −0.70 LogMar, the “Maximum low contrast visual acuity” value [2, 10] was −0.04 LogMar and the “Mean low contrast visual acuity” value [2, 10] was −0.24 LogMar. The “Minimum low contrast visual acuity” value [2, 10] was −0.78 LogMar, the “Maximum low contrast visual acuity” value [2, 11] was 0.00 LogMar and the “Mean low contrast visual acuity” value [2, 11] was −0.22 LogMar. The “Minimum low contrast visual acuity” value [2, 11] was −0.64 LogMar, the “Maximum low contrast visual acuity” value [2, 12] was 0.00 LogMar and the “Mean low contrast visual acuity” value [2, 12] was −0.20 LogMar. The “Minimum low contrast visual acuity” value [2, 12] was −0.70 LogMar, the “Maximum low contrast visual acuity” value [2, 13] was 0.00 LogMar and the “Mean low contrast visual acuity” value [2, 13] was −0.22 LogMar. For the same compound, the “Minimum low contrast visual acuity” value [2, 13] was −0.64 LogMar, the “Maximum low contrast visual acuity” value [2, 14] was −0.10 LogMar and the “Mean low contrast visual acuity” value [2, 14] was −0.28 LogMar. For the same compound, the “Minimum low contrast visual acuity” value [2, 14] was −0.74 LogMar, the “mean low contrast acuity compared to baseline” value ([2]; 0.4% (w/v), 1, 2, 4, and 8 hours post treatment) was “significant increases” and the “Maximum low contrast visual acuity” value [2, 15] was −0.02 LogMar. The “Mean low contrast visual acuity” value [2, 15] was −0.28 LogMar, the “Minimum low contrast visual acuity” value [2, 15] was −0.76 LogMar and the “Maximum low contrast visual acuity” value [2, 16] was 0.00 LogMar. The “Mean low contrast visual acuity” value [2, 16] was −0.25 LogMar, the “Minimum low contrast visual acuity” value [2, 16] was −0.62 LogMar and the “Maximum low contrast visual acuity” value [2, 17] was 0.00 LogMar. The “Mean low contrast visual acuity” value [2, 17] was −0.22 LogMar, the “Minimum low contrast visual acuity” value [2, 17] was −0.60 LogMar and the “Maximum low contrast visual acuity” value [2, 18] was 0.00 LogMar. For the same compound, the “Mean low contrast visual acuity” value [2, 18] was −0.22 LogMar, the “Minimum low contrast visual acuity” value [2, 18] was −0.70 LogMar and the “Maximum low contrast visual acuity” value [2, 19] was 0.00 LogMar. For the same compound, the “Mean low contrast visual acuity” value [2, 19] was −0.25 LogMar, the “Minimum low contrast visual acuity” value [2, 19] was −0.78 LogMar and the “Maximum low contrast visual acuity” value [2, 20] was −0.11 LogMar. For the same compound, the “Mean low contrast visual acuity” value [2, 20] was −0.34 LogMar, the “Minimum low contrast visual acuity” value [2, 20] was −0.78 LogMar and the “mean low contrast acuity compared to baseline” value ([2]; 0.8% (w/v), all post-treatment time points) was “significant increases”. The “maximal mean increase in low contrast visual acuity” value ([2]; 0.8% (w/v), at 2 hours) was 0.12 Log Mar, the “improvement in low contrast vision” value ([2]; 0.8% (w/v), at 2 hours, equivalent of the maximal mean increase) was ~6 letters on a Snellen chart and the “mean low contrast visual acuity, 0.2% (w/v) versus 0.4% and 0.8% (w/v) (ad hoc Fisher's test)” value ([2]; 2 hours post-dosing, P<0.05) was “significant differences”.
